The values that follow come from ChEMBL document CHEMBL1932914, “A new class of non-thiazolidinedione, non-carboxylic-acid-based highly selective peroxisome proliferator-activated receptor (PPAR) γ agonists: design and synthesis of benzylpyrazole acylsulfonamides” (Bioorg Med Chem, 2012).

Structures are written as SMILES. Activity calls are given as the source filed them. No cut-off for these calls is given here.

The target in series [1] is T1, Peroxisome proliferator-activated receptor delta (Homo sapiens) (UniProt Q03181).
T1 sequence (whole entry): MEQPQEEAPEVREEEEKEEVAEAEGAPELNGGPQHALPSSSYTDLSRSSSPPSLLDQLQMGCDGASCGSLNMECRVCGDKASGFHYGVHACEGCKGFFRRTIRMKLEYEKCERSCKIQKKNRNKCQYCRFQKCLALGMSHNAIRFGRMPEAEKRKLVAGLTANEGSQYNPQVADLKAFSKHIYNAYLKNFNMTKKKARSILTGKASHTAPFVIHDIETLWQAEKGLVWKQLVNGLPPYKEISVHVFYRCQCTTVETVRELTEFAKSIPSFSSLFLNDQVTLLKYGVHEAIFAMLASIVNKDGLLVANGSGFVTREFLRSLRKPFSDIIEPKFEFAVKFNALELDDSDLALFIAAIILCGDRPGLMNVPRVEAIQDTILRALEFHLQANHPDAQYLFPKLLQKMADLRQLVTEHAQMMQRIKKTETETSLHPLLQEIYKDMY
In words: Binding affinity to PPARdelta at 10 uM by competitive binding assay.

Series [2] can be described thus: Clearance in rat liver microsomes at 1 umol/L after 20 mins by HPLC analysis. As to conditions: read-out: CLH. In kind it is ADME, Microsome.
The species entered for another series is Homo sapiens. In words: Selectivity ratio of EC50 for human PPARalpha to EC50 for human PPARgamma1.
In series [3] the target is T2, Peroxisome proliferator-activated receptor gamma (Homo sapiens, UniProt P37231).
T2 sequence (P37231 whole entry): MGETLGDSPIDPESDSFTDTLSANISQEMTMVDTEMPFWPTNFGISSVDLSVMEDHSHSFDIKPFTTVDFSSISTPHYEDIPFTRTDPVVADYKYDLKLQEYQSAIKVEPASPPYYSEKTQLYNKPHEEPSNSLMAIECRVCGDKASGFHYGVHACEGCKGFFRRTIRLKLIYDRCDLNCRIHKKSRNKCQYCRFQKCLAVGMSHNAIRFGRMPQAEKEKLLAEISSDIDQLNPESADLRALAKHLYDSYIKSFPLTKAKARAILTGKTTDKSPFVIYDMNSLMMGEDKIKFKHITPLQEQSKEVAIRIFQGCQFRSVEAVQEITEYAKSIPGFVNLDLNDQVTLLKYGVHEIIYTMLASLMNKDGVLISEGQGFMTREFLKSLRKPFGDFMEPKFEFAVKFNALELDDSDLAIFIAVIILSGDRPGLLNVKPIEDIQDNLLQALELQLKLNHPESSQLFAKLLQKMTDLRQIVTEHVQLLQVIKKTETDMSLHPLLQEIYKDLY
In words: Displacement of [3H]-AD-5061 from human GST-tagged PPARgamma. For orientation: Loss of bound radioactivity is the signal in a displacement assay; it reports binding, not function.

The test system of series [4] is Rattus norvegicus. In words: Antidiabetic activity in po dosed fatty Wister rat assessed as reduction of triglyceride level administered once daily for 7 days. The format is functional.
In series [5] the target is PPAR delta/gamma (Homo sapiens) (UniProt P37231+Q03181). In words: Selectivity ratio of EC50 for human PPARdelta to EC50 for human PPARgamma1.
In series [6] the target is T3, Peroxisome proliferator-activated receptor alpha (Homo sapiens, UniProt Q07869).
T3 sequence (Q07869 whole entry): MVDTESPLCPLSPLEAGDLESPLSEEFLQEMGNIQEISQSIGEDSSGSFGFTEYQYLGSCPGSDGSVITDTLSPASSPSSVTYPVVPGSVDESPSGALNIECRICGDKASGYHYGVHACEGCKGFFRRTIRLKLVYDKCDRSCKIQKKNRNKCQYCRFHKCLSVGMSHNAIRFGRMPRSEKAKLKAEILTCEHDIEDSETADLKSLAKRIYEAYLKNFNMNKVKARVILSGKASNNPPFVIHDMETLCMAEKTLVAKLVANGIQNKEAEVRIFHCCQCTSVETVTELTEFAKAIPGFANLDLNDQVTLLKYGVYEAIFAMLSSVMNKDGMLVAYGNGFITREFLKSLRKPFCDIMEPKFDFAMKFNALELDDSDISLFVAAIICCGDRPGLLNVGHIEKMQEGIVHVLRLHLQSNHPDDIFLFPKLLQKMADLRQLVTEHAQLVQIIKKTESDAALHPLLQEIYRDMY
In words: Agonist activity at human PPARalpha expressed in COS-1 cells after 1 day by luciferase reporter gene transactivation assay. The format is functional, cell-based. Background: Reporter assays use an easily measured gene product as a stand-in for the process of interest.

Series [7] deals with T4, Peroxisome proliferator-activated receptor delta (Homo sapiens, UniProt Q03181).
T4 sequence (Q03181 whole entry): T1 sequence (whole entry)
The series can be described thus: Agonist activity at human PPARdelta expressed in COS-1 cells after 2 days by luciferase reporter gene transactivation assay. In kind it is functional, cell-based.

Series [8] addresses T5, Peroxisome proliferator-activated receptor alpha (Homo sapiens) (UniProt Q07869).
T5 sequence (whole entry): T3 sequence (Q07869 whole entry)
The series can be described thus: Agonist activity at human PPARalpha expressed in COS-1 cells at 10 uM after 1 day by luciferase reporter gene transactivation assay. In kind it is functional, cell-based.

In series [9] the test system is Rattus norvegicus. In words: Antidiabetic activity in po dosed fatty Wister rat assessed as reduction of plasma glucose level administered once daily for 7 days. In kind it is functional.
Series [10] concerns the target T5, Peroxisome proliferator-activated receptor alpha (Homo sapiens). In words: Binding affinity to PPARalpha at 10 uM by competitive binding assay.
Series [11] in a line: Clearance in human liver microsomes at 1 umol/L after 20 mins by HPLC analysis. The settings on record: read-out: CLH. In kind it is ADME, Microsome.

For orientation: IC50 means the concentration that inhibits the measured activity by half. One may read the EC50 as the midpoint of the concentration-response curve. Higher therefore signals weaker potency. `CC(C)CCS(=O)(=O)NC(=O)/C=C/c1cc(OC(C)C)nn1Cc1ccc(C(F)(F)F)cc1Cl`: the outcome in series [1] and in series [10] was inactive. Moreover, the results for the microsomal CLint at 1 µM in series [2] and in series [11] were 51 µL/min/mg and 32 µL/min/mg, respectively. In addition, the Ratio EC50 (in the series listed under Homo sapiens; in series [5]) was more than 500 in each case. Further, in series [3], the half-maximal inhibitory concentration (IC50) is 0.015 µM. Moreover, the Activity result in the series with Rattus norvegicus [4] is “Dose-dependent effect”; in series [8], 48%; in the series on Rattus norvegicus [9] it was “Dose-dependent effect”. The figures for the ED25 in the series on Rattus norvegicus [4] (168 h) and with Rattus norvegicus [9] (168 h) were 0.09 mg/kg and 0.21 mg/kg, respectively. The 50% effective concentration (EC50) in [6] and in series [7] was more than 10 µM throughout.
